Data on 23 compounds can be found in ChEMBL document CHEMBL3244119, “Synthesis and hypoglycemic activity of S-acyl derivatives of 3-mercaptopicolinic acid” (J Med Chem, 1977).

Data set [1] has as its system Rattus norvegicus. Nature of the data set: Hypoglycemic activity in 48 hrs fasted rat assessed as reduction in glucose level at 300 mg/kg, po measured after 1 hr. Type of data set: functional. On the set-up: scale not given: the % may be the effect or the level left.
Data set [2] concerns Rattus norvegicus. Nature of the data set: Hypoglycemic activity in 48 hrs fasted rat assessed as reduction in glucose level at 300 mg/kg, po measured after 2 hrs. Type of data set: functional. Also noted: scale not given: the % may be the effect or the level left.
Data set [3] deals with Rattus norvegicus. Nature of the data set: Hypoglycemic activity in 48 hrs fasted rat assessed as reduction in glucose level at 300 mg/kg, po measured after 4 hrs. It is filed as functional. Also noted: scale not given: the % may be the effect or the level left.
Data set [4] is described as follows: Half life of the compound at pH 8. It is filed as physicochemical.
Data set [5] can be described thus: Half life of the compound at pH 6. Type of data set: physicochemical.
Data set [6] is described as follows: Stability of the compound assessed as rate of 3-mercaptopicolinic acid formation at 10 mg at pH 6 by DTNB method. It is filed as physicochemical.
Data set [7] in a line: Stability of the compound assessed as rate of 3-mercaptopicolinic acid formation at 10 mg at pH 8 by DTNB method. It is filed as physicochemical.
Data set [8] is described as follows: Stability of the compound assessed as compound remaining at equilibrium at 10 mg at pH 6 by DTNB method. Type of data set: physicochemical.
The test system of data set [9] is Rattus norvegicus. Nature of the data set: Hypoglycemic activity in 48 hrs fasted rat assessed as reduction in glucose level at 200 mg/kg, po measured after 1 hr. On the set-up: scale not given: the % may be the effect or the level left. It is filed as functional.
The subject of data set [10] is Rattus norvegicus. The data set is described as follows: Hypoglycemic activity in 48 hrs fasted rat assessed as reduction in glucose level at 200 mg/kg, po measured after 2 hrs. Also noted: scale not given: the % may be the effect or the level left. It is filed as functional.
The test system of data set [11] is Rattus norvegicus. Nature of the data set: Hypoglycemic activity in 48 hrs fasted rat assessed as reduction in glucose level at 200 mg/kg, po measured after 4 hrs. It is filed as functional. Also noted: scale not given: the % may be the effect or the level left.
For data set [12], the system named is Rattus norvegicus. The data set is described as follows: Hypoglycemic activity in 48 hrs fasted rat assessed as reduction in glucose level at 150 mg/kg, po measured after 1 hr. Also noted: scale not given: the % may be the effect or the level left. Type of data set: functional.
Data set [13] relates to Rattus norvegicus. Nature of the data set: Hypoglycemic activity in 48 hrs fasted rat assessed as reduction in glucose level at 150 mg/kg, po measured after 2 hrs. Type of data set: functional. On the set-up: scale not given: the % may be the effect or the level left.
The subject of data set [14] is Rattus norvegicus. Nature of the data set: Hypoglycemic activity in 48 hrs fasted rat assessed as reduction in glucose level at 150 mg/kg, po measured after 4 hrs. On the set-up: scale not given: the % may be the effect or the level left. Type of data set: functional.
The subject of data set [15] is Rattus norvegicus. Nature of the data set: Hypoglycemic activity in 48 hrs fasted rat assessed as reduction in glucose level at 125 mg/kg, po measured after 1 hr. It is filed as functional. On the set-up: scale not given: the % may be the effect or the level left.
For data set [16], the system named is Rattus norvegicus. Nature of the data set: Hypoglycemic activity in 48 hrs fasted rat assessed as reduction in glucose level at 125 mg/kg, po measured after 2 hrs. Type of data set: functional. Also noted: scale not given: the % may be the effect or the level left.
In data set [17] the test system is Rattus norvegicus. The data set is described as follows: Hypoglycemic activity in 48 hrs fasted rat assessed as reduction in glucose level at 125 mg/kg, po measured after 4 hrs. It is filed as functional. On the set-up: scale not given: the % may be the effect or the level left.
The nature of data set [18]: Stability of the compound in 3 N HCl at room temperature after 3.5 hrs by TLC. Particulars: buffer. It is filed as physicochemical.
Data set [19] is described as follows: Stability of the compound in 3 N HCl-ethanol […] measured after refluxing for 2.5 hrs by TLC. Type of data set: physicochemical. Particulars: buffer.
The test system of data set [20] is Rattus norvegicus. Nature of the data set: Hypoglycemic activity in 48 hrs fasted rat assessed as reduction in glucose level at 250 mg/kg, po measured after 1 hr. It is filed as functional. Also noted: scale not given: the % may be the effect or the level left.
Data set [21] deals with Rattus norvegicus. The data set is described as follows: Hypoglycemic activity in 48 hrs fasted rat assessed as reduction in glucose level at 250 mg/kg, po measured after 2 hrs. Type of data set: functional. On the set-up: scale not given: the % may be the effect or the level left.
Data set [22] has as its system Rattus norvegicus. The data set is described as follows: Hypoglycemic activity in 48 hrs fasted rat assessed as reduction in glucose level at 250 mg/kg, po measured after 4 hrs. On the set-up: scale not given: the % may be the effect or the level left. It is filed as functional.

Broadly, the half-life is how long it takes for the measured level to halve. As to `O=C(Sc1cccnc1C(=O)O)c1ccc([N+](=O)[O-])cc1`, the Activity in data set [1] turned out to be 0%; in data set [2], 0%; in data set [3], 12%; in data set [6] it was 0.147 h⁻¹; in data set [7], 0.513 h⁻¹. Further, the half-life in [4] was 4.7 h; in data set [5], 1.4 h. Further, the Stability in data set [8] amounted to 24.3 mol%.

For the compound `CCCCNC(=O)NS(=O)(=O)c1ccc(C)cc1` [TOLBUTAMIDE], the Activity in data set [9] was 28%; in data set [10] it was 47%; in data set [11], 48%.

Take `O=C(O)c1ncccc1S`: the Activity in data set [12] was -32%; in data set [13] it was -44%; in data set [14], -56%.

`COC(=O)c1ccc(C(=O)Sc2cccnc2C(=O)O)cc1`: the Activity was -17% in [12], -20% in data set [13] and 1% in data set [14].

`O=C(Nc1ccc(C(=O)Sc2cccnc2C(=O)O)cc1)c1ccccc1`: the Activity is -20% in data set [12], -20% in [13] and -4% in [14].

As for `COc1cccc(C(=O)Sc2cccnc2C(=O)O)c1`, the Activity in [1] is -15%; in data set [2], -24%; in data set [3], -30%; in data set [6] it was 0.0109 h⁻¹; in [7], 0.0583 h⁻¹. Further, the half-life is 63.7 h in [4] and 11.9 h in data set [5].

As for `CC(C)(C)C(=O)Sc1cccnc1C(=O)O`, the Activity was -20% in data set [1]; -43% in data set [2]; -70% in [3]; 21% in data set [15]; 42% in data set [16]; 52% in [17]. For the same compound, the figures for the Activity in data set [6] and in data set [7] were 0.006 h⁻¹ and 0.0114 h⁻¹, respectively. Moreover, the half-life in data set [4] is 115 h; in data set [5], 61.1 h.

As for `O=C(Sc1cccnc1C(=O)O)c1ccc(F)cc1`, the Activity in data set [1] was -29%; in data set [2], -47%; in [3], -44%; in [6] it was 0.0062 h⁻¹; in data set [7], 0.0575 h⁻¹. For the same compound, the figures for the half-life in [4] and in [5] were 111 h and 12.1 h, respectively.

As for `O=C(Sc1cccnc1C(=O)O)c1cccc(C(F)(F)F)c1`, the Activity is -35% in data set [1]; -38% in data set [2]; 45% in data set [3]; 0.0695 h⁻¹ in data set [6]; 0.179 h⁻¹ in data set [7]. Besides, the values for the half-life in data set [4] and in data set [5] were 10 h and 3.9 h, respectively.

On to `CC(=O)Nc1ccc(C(=O)Sc2cccnc2C(=O)O)cc1`, for which the Activity in data set [12] is recorded as -18%; in data set [13] it was -14%; in [14] it was 7%.

As for `O=C(Sc1cccnc1C(=O)O)c1ccccc1Cl`, the Activity was -35% in data set [1]; -39% in [2]; -40% in data set [3]; 0.0091 h⁻¹ in data set [6]; 0.0255 h⁻¹ in [7]. In addition, the half-life in data set [4] was 75.8 h; in data set [5], 27.2 h.

On to `COc1ccc(C(=O)Sc2cccnc2C(=O)O)cc1`, for which the Activity in data set [1] was 16%; in data set [2], -25%; in data set [3], 19%; in data set [6], 0.0038 h⁻¹; in data set [7], 0.0158 h⁻¹. Further, the half-life in [4] was 182 h; in data set [5], 43.9 h.

For the compound `NC(=O)c1ccc(C(=O)Sc2cccnc2C(=O)O)cc1`, the Activity is -22% in data set [12], -6% in [13] and -25% in [14].

For `O=C(Sc1cccnc1C(=O)O)c1ccccc1`, the Activity is -27% in data set [1]; -42% in data set [2]; -56% in data set [3]; 0.0115 h⁻¹ in [6]; 0.0329 h⁻¹ in data set [7]. The half-life in data set [4] was 60.1 h; in data set [5], 21.1 h. The Stability result in [18] and in data set [19] was “Stable” throughout.

Consider `O=C(Sc1cccnc1C(=O)O)c1ccc(Cl)cc1`, for which the Activity in [1] is on record as -43%; in data set [2], -34%; in data set [3], -57%; in data set [15], 12%; in data set [16], 34%; in [17], 40%. Further, the Activity in [6] was 0.0261 h⁻¹; in data set [7], 0.0879 h⁻¹. Besides, the values for the half-life in [4] and in data set [5] were 26.6 h and 7.9 h, respectively.

Regarding `Cc1ccc(C(=O)Sc2cccnc2C(=O)O)cc1`, the Activity in data set [1] was -21%; in data set [2] it was -16%; in data set [3], -4%; in [6] it was 0.0087 h⁻¹; in data set [7], 0.0271 h⁻¹. In addition, the half-life in data set [4] is 80.1 h; in [5], 25.6 h.

As to `O=C(Sc1cccnc1C(=O)O)c1ccc(C(F)(F)F)cc1`, the Activity in [1] is -26%; in data set [2] it was -54%; in data set [3] it was -75%; in data set [15], 28%; in data set [16] it was 41%; in data set [17], 32%. For the same compound, the values for the Activity in data set [6] and in data set [7] were 0.0688 h⁻¹ and 0.231 h⁻¹, respectively. In addition, the half-life in data set [4] is 10.1 h; in data set [5], 3 h.

`N#Cc1ccc(C(=O)Sc2cccnc2C(=O)O)cc1`: the Activity is recorded as -18% in data set [12], -16% in [13] and 0% in [14].

On to `CCCCCCCCCCC(=O)Sc1cccnc1C(=O)O`, for which the figures for the Activity in data set [12], in data set [13] and in data set [14] were -14%, 3% and -9%, respectively.

Turning to `CN(C)c1ccc(C(=O)Sc2cccnc2C(=O)O)cc1`, the Activity in [12] was -12%; in [13] it was -2%; in data set [14], -8%.

`NS(=O)(=O)c1ccc(C(=O)Sc2cccnc2C(=O)O)cc1`: the Activity in [12] is reported as 20%; in data set [13], -16%; in data set [14], 3%.

Turning to `CCC(=O)Sc1cccnc1C(=O)O`, the Activity in [20] was determined as 22%; in [21] it was 52%; in data set [22] it was 55%.

Regarding `O=C(Sc1cccnc1C(=O)O)c1cccc(Cl)c1`, the Activity in [1] was -27%; in [2], -32%; in data set [3] it was -42%; in data set [6], 0.0468 h⁻¹; in data set [7], 0.148 h⁻¹. Moreover, the results for the half-life in data set [4] and in data set [5] were 14.8 h and 4.7 h, respectively.
